Values of other authors in patent US12296049B2, “Immediate release dosage form” (Kenvue Brands LLC, priority 2019, dated 2025).

Conditions: at lower acidic pH it precipitates

- pH at which the drug stays in solution: above 5.4
Compound: COc1ccc2cc([C@H](C)C(=O)O)ccc2c1 [naproxen sodium]
